Data from BindingDB's records for doi:10.1111/cbdd.12189 (Tianjin Medical University, 2013).

Legend:
[1] = target: T1, Tyrosine-protein phosphatase non-receptor type 1 (Homo sapiens, UniProt P18031); assay: PTP activity assay; settings: pH 6; 37 °C
T1 sequence (P18031 whole entry): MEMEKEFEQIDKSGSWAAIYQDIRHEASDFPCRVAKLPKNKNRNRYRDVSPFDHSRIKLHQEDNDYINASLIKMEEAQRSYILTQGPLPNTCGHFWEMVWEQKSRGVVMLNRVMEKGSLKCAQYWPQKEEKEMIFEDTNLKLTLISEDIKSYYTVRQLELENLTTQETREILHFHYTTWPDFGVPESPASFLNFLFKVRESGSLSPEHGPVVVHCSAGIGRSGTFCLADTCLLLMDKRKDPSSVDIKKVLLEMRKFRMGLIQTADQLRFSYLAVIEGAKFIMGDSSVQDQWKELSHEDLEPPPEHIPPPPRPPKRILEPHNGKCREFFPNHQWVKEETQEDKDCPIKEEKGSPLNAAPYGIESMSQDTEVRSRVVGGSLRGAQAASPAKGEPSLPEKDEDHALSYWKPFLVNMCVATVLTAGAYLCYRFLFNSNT
Method: (§1) The enzyme activity was measured using p-nitrophenyl phosphate (pNPP) as substrate in a 96-well plate and by detecting the absorbance at 405 nm for the amount of produced p-nitrophenol. Purified human recombinant PTP1B or TCPTP (0.05 µg) in 50 µL buffer containing 50 mM citrate (pH 6.0), 0.1 M NaCl, 1 mM EDTA, and 1 mM DTT and test compounds were added to each well. Each mixture was pre-incubated for 15 min at room temperature, followed by the addition of 50 µL of reaction buffer containing 2 mM pNPP and incubated at 37°C for 30 min.

[2] = target: T2, Tyrosine-protein phosphatase non-receptor type 2 (Homo sapiens, UniProt P17706); assay: PTP activity assay; settings: pH 6; 37 °C
T2 sequence (P17706 whole entry): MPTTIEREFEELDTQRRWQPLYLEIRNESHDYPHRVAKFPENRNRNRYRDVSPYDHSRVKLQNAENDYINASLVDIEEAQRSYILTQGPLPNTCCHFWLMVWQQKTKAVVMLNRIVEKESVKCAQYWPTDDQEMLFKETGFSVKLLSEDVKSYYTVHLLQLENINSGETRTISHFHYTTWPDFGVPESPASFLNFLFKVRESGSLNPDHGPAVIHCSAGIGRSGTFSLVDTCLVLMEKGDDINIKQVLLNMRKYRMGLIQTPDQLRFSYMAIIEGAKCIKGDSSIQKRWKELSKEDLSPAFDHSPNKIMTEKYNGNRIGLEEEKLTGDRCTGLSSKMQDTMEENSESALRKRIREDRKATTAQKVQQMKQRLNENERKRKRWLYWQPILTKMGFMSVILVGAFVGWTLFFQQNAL
Method: as §1

Row | Structure (SMILES) | IC50 [1] [µM] | IC50 [2] [µM]
1 | O=C1NC(=O)/C(=C/c2cccc(OCCc3ccccc3)c2)N1 [(5Z)‐5‐{[3‐(2‐ phenylethoxy)phenyl]methylidene}imidazolidine‐2,4‐ dione (comp#e)] | 11.4 | 44.1
2 | COc1ccc(COc2ccc(/C=C3\NC(=O)NC3=O)cc2)cc1 [(5Z)‐5‐({4‐[(4‐ methoxyphenyl)methoxy]phenyl}methylidene)imidazolidine‐ 2,4‐dione (comp#l)] | 3.4 | 31.4
3 | O=C1NC(=O)/C(=C/c2ccccc2OCc2ccc(Cl)cc2Cl)N1 [(5Z)‐5‐({2‐[(2,4‐ dichlorophenyl)methoxy]phenyl}methylidene)imidazolidine‐ 2,4‐dione (comp#c)] | 4.1 | 18.7
4 | O=C1NC(=O)/C(=C/c2ccccc2OCc2ccc(Cl)cc2)N1 [(5Z)‐5‐({2‐[(4‐ chlorophenyl)methoxy]phenyl}methylidene)imidazolidine‐ 2,4‐dione (comp#b)] | 4.6 | 35.9
5 | O=C1NC(=O)/C(=C/c2ccc(OCc3ccc(Cl)cc3Cl)cc2)N1 [(5Z)‐5‐({4‐[(2,4‐ dichlorophenyl)methoxy]phenyl}methylidene)imidazolidine‐ 2,4‐dione (comp#j)] | – | 11.6
6 | O=C1NC(=O)/C(=C/c2cccc(OCc3ccc(Cl)cc3Cl)c2)N1 [(5Z)‐5‐({3‐[(2,4‐ dichlorophenyl)methoxy]phenyl}methylidene)imidazolidine‐ 2,4‐dione (comp#h)] | 4.1 | > 138
7 | O=C1NC(=O)/C(=C/c2cccc(OCc3ccccc3)c2)N1 [(5Z)‐5‐{[3‐ (benzyloxy)phenyl]methylidene}imidazolidine‐2,4‐ dione (comp#d)] | > 170 | > 170
8 | O=C1NC(=O)/C(=C/c2cccc(OCc3ccc(Cl)cc3)c2)N1 [(5Z)‐5‐({3‐[(4‐ chlorophenyl)methoxy]phenyl}methylidene)imidazolidine‐ 2,4‐dione (comp#g)] | 40.8 | 137
9 | O=C1NC(=O)/C(=C/c2ccccc2OCc2cccc(Cl)c2)N1 [(5Z)‐5‐({2‐[(3‐ chlorophenyl)methoxy]phenyl}methylidene)imidazolidine‐ 2,4‐dione (comp#a)] | 37.4 | 36.8
10 | O=C1NC(=O)/C(=C/c2ccc(OCc3ccc(Cl)c(Cl)c3)cc2)N1 [(5Z)‐5‐({4‐[(3,4‐ dichlorophenyl)methoxy]phenyl}methylidene)imidazolidine‐ 2,4‐dione (comp#k)] | – | 33.9
11 | O=C1NC(=O)/C(=C/c2cccc(OCc3ccc(Cl)c(Cl)c3)c2)N1 [(5Z)‐5‐({3‐[(3,4‐ dichlorophenyl)methoxy]phenyl}methylidene)imidazolidine‐ 2,4‐dione (comp#i)] | 2.8 | 33.6
12 | O=C1NC(=O)/C(=C/c2cccc(OCCCc3ccccc3)c2)N1 [(5Z)‐5‐{[3‐(3‐ phenylpropoxy)phenyl]methylidene}imidazolidine‐2,4‐ dione (comp#f)] | 41.9 | 22.3
